The results in this text go back to patent US4062959A, “N-methyl-imidazole derivatives for treating mycotic infections” (Bayer Aktiengesellschaft, priority 1970, dated 1977).

≈ marks a conversion by molar mass, not a printed value.

Experiment in all cases: Anti-mycotic action in vitro (MIC, serial dilution test)
Format in all cases: cell-based

In one test the test system is Penicillium commune. Conditions: 28° C, 24 to 96 hours, dilution series 100-40-20-10-4-1, read-out: Minimal inhibitory concentration (MIC), Penicillium commune. As for the experimental part: (§1) The Table summarises the anti-mycotic actions in vitro of several preparations towards several species of fungi:
(§2) The MIC determination was carried out in a serial dilution test, in the dilution series 100-40-20-10-4-1 γ/ml of substrate. The following were used as nutrient substrates:
(§3) The incubation temperature was 28° C, and the incubation time was 24 to 96 hours.

For another test, the system named is Aspergillus niger. Conditions: 28° C, 24 to 96 hours, dilution series 100-40-20-10-4-1, read-out: Minimal inhibitory concentration (MIC), Aspergillus niger. As to the method: as §1, §2, §3
The test system of a further test is Candida albicans. The following applies: 28° C, 24 to 96 hours, meat water-glucose-bouillon (yeasts), dilution series 100-40-20-10-4-1, read-out: Minimal inhibitory concentration (MIC), Candida albicans. As for the experimental part: as §1, §2
b. for yeasts: meat water -- glucose -- bouillon.
as §3

Test [1] has as its system Trichophyton mentagrophytes. The following applies: 28° C, 24 to 96 hours, Sabouraud's test medium (Dermatophytes), dilution series 100-40-20-10-4-1, read-out: Minimal inhibitory concentration (MIC), Trichophyton mentagrophytes. As to the method: as §1, §2
(§4) a. for Dermatophytes: Sabouraud's test medium
as §3

For the next test, the system named is Microsporon felineum. Conditions: 28° C, 24 to 96 hours; Sabouraud's test medium (Dermatophytes); dilution series 100-40-20-10-4-1; read-out: Minimal inhibitory concentration (MIC), Microsporon felineum. As for the experimental part: as §1, §2, §4, §3

`c1ccc(C(c2ccccc2)(c2cnccn2)n2ccnc2)cc1` [Example 2, Diphenyl-pyrazyl-imidazol-1-yl-methane]: the MIC in the test with Penicillium commune came to 40 mg/L (≈ 128 µM); in the test on Aspergillus niger it was 10 mg/L (≈ 32 µM); with Candida albicans it was 40 mg/L (≈ 128 µM); in test [1], 4 mg/L (≈ 12.8 µM); with Microsporon felineum, 10 mg/L (≈ 32 µM).

For `c1ccc(C(c2ccccc2)(c2cncnc2)n2ccnc2)cc1` [Example 1, Diphenyl-pyrimid-5-yl-imidazol-1-yl-methane], the MIC with Penicillium commune amounted to 100 mg/L (≈ 320 µM); in the test with Aspergillus niger, 10 mg/L (≈ 32 µM); in the test with Candida albicans, 40 mg/L (≈ 128 µM); in test [1] it was 4 mg/L (≈ 12.8 µM); in the test with Microsporon felineum, 40 mg/L (≈ 128 µM).

For `Fc1ccc(C(c2ccccc2)(c2cnccn2)n2ccnc2)cc1` (stereo not drawn) [Example 3, 4-Fluorophenyl-phenyl-pyrazyl-imidazol-1-yl-methane], the MIC was 4 mg/L (≈ 12.1 µM) in the test with Penicillium commune; 4 mg/L (≈ 12.1 µM) in the test with Aspergillus niger; 4 mg/L (≈ 12.1 µM) with Candida albicans; under 1 mg/L in test [1]; 4 mg/L (≈ 12.1 µM) in the test on Microsporon felineum.
